# According to US9714243B2, “4-pyridinonetriazine derivatives as HIV integrase inhibitors” (Merck Sharp & Dohme Corp., priority 2012, dated 2017):
# Like-named read-outs stand apart in the source and are kept apart here.
# Test system: HIV-1 (NL4-3 strain)
# Assay: Assay for inhibition of HIV replication (ViKinG; infected MT4-GFP cells)
# Format: cell-based
# Outline: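 MT4-GFP cells infected with NL4-3 at low MOI for 24 h, washed, then exposed to serially diluted compound (0.4% DMSO) in RPMI. GFP+ cells counted at 24 and 48 h; R0 = 48 h/24 h ratio, inhibition normalised to DMSO and triple-drug controls, IC50 from 4-parameter fit.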
# [1] = MT4-GFP cells infected with HIV-1 NL4-3, 10% normal human serum (NHS), read-out: ViKinG IP (nM) with 10% NHS
# [2] = MT4-GFP cells infected with HIV-1 NL4-3, 100% normal human serum (NHS), read-out: ViKinG IP (nM) with 100% NHS
# [3] = Human immunodeficiency virus 1, NL43, MT4-GFP cells infected with HIV-1 NL4-3, 10% normal human serum (NHS), read-out: ViKinG IP (nM) with 10% NHS
# [4] = Human immunodeficiency virus 1, NL43, MT4-GFP cells infected with HIV-1 NL4-3, 100% normal human serum (NHS), read-out: ViKinG IP (nM) with 100% NHS
# [5] = MT4-GFP cells infected with HIV-1 NL4-3, 0% normal human serum (NHS), read-out: ViKinG IP (nM) with 0% NHS
# [6] = Human immunodeficiency virus 1, NL43, MT4-GFP cells infected with HIV-1 NL4-3, 0% normal human serum (NHS), read-out: ViKinG IP (nM) with 0% NHS
Compound,IC50 [2] [nM],IC50 [4] [nM],IC50 [6] [nM],other results
CN1C2CCCCN2C(=O)c2c(O)c(=O)c(-c3nnc(Cc4ccc(F)cc4)s3)cn21 (stereo not shown) [Compound 154],1590,,,IC50 [1]: 33.9 nM
CC1CCC2N1C(=O)c1c(O)c(=O)c(-c3nnc(Cc4ccc(F)cc4F)s3)cn1N2C (stereo not shown) [Compound 156],,989,,IC50 [3]: 26.7 nM
CN1C2CCCCN2C(=O)c2c(O)c(=O)c(-c3nnc(Cc4ccc(F)cc4F)s3)cn21 (stereo not shown) [Compound 157],,613,,IC50 [3]: 14.2 nM
CN1C2CCCCN2C(=O)c2c(O)c(=O)c(-c3nnc(Cc4ccc(F)cc4F)s3)cn21 (stereo not shown) [Compound 158],503,,,IC50 [1]: 17.7 nM
CN1C2COCCN2C(=O)c2c(O)c(=O)c(-c3nnc(Cc4ccc(F)cc4)s3)cn21 (stereo not shown) [Compound 161],465,,,IC50 [1]: 41.1 nM
CN1C2COCCN2C(=O)c2c(O)c(=O)c(-c3nnc(Cc4ccc(F)cc4)s3)cn21 (stereo not shown) [Compound 162],186,,,IC50 [1]: 10.8 nM
CN1C2C(O)CCCN2C(=O)c2c(O)c(=O)c(-c3nnc(Cc4ccc(F)cc4F)s3)cn21 (stereo not shown) [Compound 164],82.2,,,IC50 [5]: 3.48 nM
CN1C2C(O)CCCN2C(=O)c2c(O)c(=O)c(-c3nnc(Cc4ccc(F)cc4F)s3)cn21 (stereo not shown) [Compound 165],54,,,IC50 [5]: 5.12 nM
CN1C2C(O)CCCN2C(=O)c2c(O)c(=O)c(-c3nnc(Cc4ccc(F)cc4F)s3)cn21 (stereo not shown) [Compound 166],162,,,IC50 [5]: 9 nM
CN1C2C(O)CCCN2C(=O)c2c(O)c(=O)c(-c3nnc(Cc4ccc(F)cc4F)s3)cn21 (stereo not shown) [Compound 167],41.9,,,IC50 [5]: 2.52 nM
CCN1C(=O)c2c(O)c(=O)c(-c3nnc(Cc4ccc(F)cc4)s3)cn2N(CCOC)C1C (stereo not shown) [Compound 169],,1510,,IC50 [3]: 90 nM
CCN1C(=O)c2c(O)c(=O)c(-c3nnc(Cc4ccc(F)cc4)s3)cn2N(CC(=O)N(C)C)C1(C)C [Compound 171],,673,,IC50 [3]: 21 nM
COCCN1C(=O)c2c(O)c(=O)c(-c3nnc(Cc4ccc(F)cc4F)s3)cn2N(C)C12CCC2 [Compound 173],,526,7,
CN1C(=O)c2c(O)c(=O)c(C(=O)NCc3ccc(F)cc3F)cn2CC12CC2 [Compound 174],,125,2.87,
C[C@H]1n2cc(C(=O)NCc3ccc(F)cc3F)c(=O)c(O)c2C(=O)N(C)C12CC2 [Compound 175],,37.1,1.54,
C[C@@H]1n2cc(C(=O)NCc3ccc(F)cc3F)c(=O)c(O)c2C(=O)N(C)C12CC2 [Compound 176],,39,2.12,
COCCN1C(=O)c2c(O)c(=O)c(C(=O)NCc3ccc(F)cc3F)cn2CC12CCC2 [Compound 177],,4790,5.03,
CN1C(=O)c2c(O)c(=O)c(C(=O)NCc3ccc(F)cc3F)cn2CC12CCC2 [Compound 178],,233,2.73,
CCN1C(=O)c2c(O)c(=O)c(C(=O)NCc3ccc(F)cc3F)cn2CC12CC2 [Compound 179],,1360,2.86,
COCCN1C(=O)c2c(O)c(=O)c(C(=O)NCc3ccc(F)cc3F)cn2CC12CC2 [Compound 180],,611,1.8,
COC1CCC2(CC1)Cn1cc(C(=O)NCc3ccc(F)cc3F)c(=O)c(O)c1C(=O)N2C (stereo not shown) [Compound 181],,28.9,2.48,
CCOC1CCC2(CC1)Cn1cc(C(=O)NCc3ccc(F)cc3F)c(=O)c(O)c1C(=O)N2CC (stereo not shown) [Compound 182],,45.5,4.02,
COCCN1C(=O)c2c(O)c(=O)c(C(=O)NCc3ccc(F)cc3F)cn2[C@@H](C)C12CC2 [Compound 183],,188,3.17,

Compound,IC50 [2] [nM],IC50 [4] [nM],IC50 [6] [nM],other results
COCCN1C(=O)c2c(O)c(=O)c(C(=O)NCc3ccc(F)cc3)cn2[C@@H](C)C12CC2 [Compound 184],,178,2.66,
COCCN1C(=O)c2c(O)c(=O)c(C(=O)NCc3ccc(F)c(F)c3F)cn2[C@@H](C)C12CC2 [Compound 185],,212,2.2,
CN1C(=O)c2c(O)c(=O)c(C(=O)NCc3ccc(F)cc3F)cn2N(C)[C@]12CC[C@@H]1C[C@@H]12 [Compound 186],,283,1.74,
CN1C(=O)c2c(O)c(=O)c(C(=O)NCc3ccc(F)cc3F)cn2N(C)[C@@]12CC[C@@H]1C[C@@H]12 [Compound 187],,502,3.64,
CCN1C(=O)c2c(O)c(=O)c(C(=O)NCc3ccc(F)cc3F)cn2N(C)C12CC[C@@H]1C[C@@H]12 (stereo partly shown) [Compound 188],,406,1.49,
CCN1C(=O)c2c(O)c(=O)c(C(=O)NCc3ccc(F)cc3F)cn2N(C)[C@@]12CC[C@@H]1C[C@@H]12 [Compound 189],,626,3.62,
COCCN1C(=O)c2c(O)c(=O)c(C(=O)NCc3ccc(F)cc3F)cn2N(C)C12CC[C@@H]1C[C@@H]12 (stereo partly shown) [Compound 190],,2910,29,
CCOC1CCC2(CC1)N(CC)C(=O)c1c(O)c(=O)c(C(=O)NCc3ccc(F)cc3F)cn1N2C (stereo not shown) [Compound 191],239,,6.74,
CCOC1CCC2(CC1)N(CC)C(=O)c1c(O)c(=O)c(C(=O)NCc3ccc(F)cc3F)cn1N2C (stereo not shown) [Compound 192],67.2,,,IC50 [5]: 3.66 nM
CCCOC1CCC2(CC1)N(CC)C(=O)c1c(O)c(=O)c(C(=O)NCc3ccc(F)cc3F)cn1N2C (stereo not shown) [Compound 193],84.8,,,IC50 [5]: 8.24 nM
CCCOC1CCC2(CC1)N(CC)C(=O)c1c(O)c(=O)c(C(=O)NCc3ccc(F)cc3F)cn1N2C (stereo not shown) [Compound 194],400,,,IC50 [5]: 25 nM
CN1C(=O)c2c(O)c(=O)c(-c3nnc(Cc4ccc(F)cc4F)s3)cn2N(C)C12CC[C@@H]1C[C@@]12CO (stereo partly shown) [Compound 195],190,,2.02,
CN1n2cc(-c3nnc(Cc4ccc(F)cc4F)s3)c(=O)c(O)c2C(=O)NC12CC[C@@H]1C[C@@H]12 (stereo partly shown) [Compound 196],,307,1.61,
COC(=O)[C@]12C[C@H]1CCC21N(C)C(=O)c2c(O)c(=O)c(-c3nnc(C(C)c4ccc(F)cc4F)s3)cn2N1C (stereo partly shown) [Compound 206],,,15.4,IC50 [3]: 62.4 nM
O=C1NC2(CCC2)Cn2cc(-c3nnc(Cc4ccc(F)cc4F)s3)c(=O)c(O)c21 [Compound 210],,,4.11,IC50 [3]: 68.4 nM
CCN1C(=O)c2c(O)c(=O)c(-c3nnc(Cc4ccc(F)cc4F)s3)cn2CC12CCC2 [Compound 211],,2800,10.3,
COC1CCC2(CC1)Cn1cc(-c3nnc(Cc4ccc(F)cc4F)s3)c(=O)c(O)c1C(=O)N2C (stereo not shown) [Compound 212],90.7,,3.49,
COC1CCC2(CC1)Cn1cc(-c3nnc(Cc4ccc(F)cc4F)s3)c(=O)c(O)c1C(=O)N2C (stereo not shown) [Compound 213],35.8,,,IC50 [5]: 5.89 nM
COCCN1C(=O)c2c(O)c(=O)c(-c3cn(Cc4ccc(F)cc4F)nn3)cn2CC12CCC2 [Compound 214],,205,24.4,
CN1C(=O)c2c(O)c(=O)c(-c3cn(Cc4ccc(F)cc4F)nn3)cn2CC12CCC2 [Compound 215],,76.1,9.93,
CCN1C(=O)c2c(O)c(=O)c(-c3cn(Cc4ccc(F)cc4F)nn3)cn2CC12CCC2 [Compound 216],,332,13.2,
CCN1C(=O)c2c(O)c(=O)c(-c3nnc(Cc4ccc(F)cc4)s3)cn2N(C)C12CCCCC2 [Compound 222],,,1.28,
CCN1C(=O)c2c(O)c(=O)c(-c3nnc(Cc4ccc(F)cc4)s3)cn2N(C)C12CC(C(=O)OC)C2 (stereo not shown) [Compound 224],,361,,IC50 [3]: 49.3 nM
